Test results taken from PubChem BioAssay (NCI).
Values joined by “and” are separate entries in the source; they are usually repeats but may differ in a detail not shown here. Equal values may be shown once.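 Dose response: 5 concentrations. Exposure: 48 h. Format: 96-well plates. Endpoint: linear interpolation; highest concentration if not reached. Here, GI50 denotes the concentration required for 50% inhibition of growth. TGI: total growth inhibition.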

Assays:
Assay in all cases: NCI anticancer screen, dose series, 48 h
EKVX NSCLC = test system: EKVX NSCLC
HT29 colon = test system: HT29 colon
OVCAR-3 ovarian = test system: OVCAR-3 ovarian
OVCAR-8 ovarian = test system: OVCAR-8 ovarian
CCRF-CEM leukemia = test system: CCRF-CEM leukemia
SF-268 CNS = test system: SF-268 CNS
HCT-15 colon = test system: HCT-15 colon
LOX IMVI melanoma = test system: LOX IMVI melanoma
OVCAR-5 ovarian = test system: OVCAR-5 ovarian
COLO 205 colon = test system: COLO 205 colon

Row | SMILES | TGI (EKVX NSCLC) | TGI (HT29 colon) | TGI (OVCAR-3 ovarian) | TGI (OVCAR-8 ovarian) | TGI (CCRF-CEM leukemia) | TGI (SF-268 CNS) | TGI (HCT-15 colon) | TGI (LOX IMVI melanoma) | TGI (OVCAR-5 ovarian) | TGI (COLO 205 colon) | GI50 (EKVX NSCLC) | GI50 (HT29 colon) | GI50 (OVCAR-3 ovarian) | GI50 (OVCAR-8 ovarian) | GI50 (CCRF-CEM leukemia) | GI50 (SF-268 CNS) | GI50 (HCT-15 colon) | GI50 (LOX IMVI melanoma) | GI50 (OVCAR-5 ovarian) | GI50 (COLO 205 colon)
1 | C[C@H]1COC2(c3ccccc3)CCC(=O)N12 (stereo partly drawn) | > 100 µM | > 100 µM | > 100 µM | > 100 µM | > 100 µM | > 100 µM | > 100 µM | > 100 µM | > 100 µM | > 100 µM | – | – | – | – | – | – | – | – | – | –
2 | O=C1NC(=O)C2(CCC(O)C2)c2cc[n+]([O-])cc21 (stereo not drawn) | > 100 µM | > 100 µM | > 100 µM | > 100 µM | > 100 µM | > 100 µM | > 100 µM | > 100 µM | > 100 µM | > 100 µM | – | – | – | – | – | – | – | – | – | –
3 | CCN(Cc1nc2cc(C(F)(F)F)ccc2nc1-c1ccccc1)c1ccc(OC)c(OC)c1 | 73.6 µM | > 100 µM | 26.5 µM | 18.7 µM | 24.7 µM | > 100 µM | 34.5 µM | 27.2 µM | 46 µM | > 100 µM | 20.1 µM | 14.9 µM | 13.1 µM | 1.51 µM | 4.74 µM | 26.1 µM | 16.3 µM | 14.2 µM | 21.6 µM | 31.4 µM
4 | CC1CCC2C(C)C3C(CC4C5CC=C6CC(OC7OC(CO)C(O)C(OC8OC(CO)C(O)C(O)C8O)C7OC7OC(C)C(O)C(O)C7O)CCC6(C)C5CCC43C)N2C1 (stereo not drawn) | 21.9 µM and > 2.5 µg/mL | 25.6 µM and > 2.5 µg/mL | 31.7 µM and > 2.5 µg/mL | 29.8 µM and > 2.5 µg/mL | 28.2 µM and > 2.5 µg/mL | 34.1 µM and > 2.5 µg/mL | 33 µM and > 2.5 µg/mL | 29.7 µM and > 2.5 µg/mL | 28 µM and > 2.5 µg/mL | 33 µM and > 2.5 µg/mL | > 2.5 mg/L | > 2.5 mg/L | > 2.5 mg/L | > 2.5 mg/L | > 2.5 mg/L | > 2.5 mg/L | > 2.5 mg/L | > 2.5 mg/L | > 2.5 mg/L | > 2.5 mg/L
5 | CCCCSCc1nc2nc(Cl)c(Cl)nc2[nH]1 | > 100 µM | > 100 µM | 36.7 µM | > 100 µM | 63.6 µM | > 100 µM | 85.5 µM | 44.5 µM | > 100 µM | 37 µM | – | – | – | – | – | – | – | – | – | –
6 | CN(/N=C/c1ccnc2ccccc12)c1ccc([N+](=O)[O-])cc1[N+](=O)[O-] | > 100 µM | > 100 µM | > 100 µM | > 100 µM | > 100 µM | > 100 µM | > 100 µM | > 100 µM | > 100 µM | > 100 µM | – | – | – | – | – | – | – | – | – | –
7 | Cc1ccc2[nH]c(C(=O)NN3C(=O)CSC34CCCC(C)C4)c(-c3ccccc3)c2c1 (stereo not drawn) | 58.8 µM | 29.4 µM | 30.3 µM | 32.9 µM | 31.8 µM | 32.5 µM | 37.2 µM | 37.1 µM | 34.8 µM | 35.4 µM | 24.2 µM | 13.8 µM | 13.8 µM | 15.6 µM | 10.8 µM | 15.6 µM | 18.3 µM | 19.8 µM | 18.3 µM | 17.5 µM
8 | O=C(NCCCNC(=O)OCc1ccc2c(Br)cc(Br)c(O)c2n1)OCc1ccc2c(Br)cc(Br)c(O)c2n1 | > 100 µM | > 100 µM | > 100 µM | > 100 µM | > 100 µM | > 100 µM | > 100 µM | > 100 µM | > 100 µM | > 100 µM | > 100 µM | > 100 µM | > 100 µM | > 100 µM | > 100 µM | > 100 µM | > 100 µM | > 100 µM | > 100 µM | > 100 µM
9 | COc1cc(-c2nn(C(=O)NS(=O)(=O)c3ccc(C)cc3)cc2-c2ccncc2)ccc1Cl | 27.6 µM | 17.6 µM | > 100 µM | 93.6 µM | > 100 µM | > 100 µM | 44.7 µM | 18.1 µM | 39.4 µM | 15.4 µM | 2.78 µM | 2.89 µM | 25.2 µM | 2.02 µM | 14.1 µM | 4.32 µM | 10.2 µM | 3.54 µM | 5.53 µM | 3.89 µM
10 | COc1ccc(C2C(c3ccccc3)C(=O)N2c2cc(OC)c(OC)c(OC)c2)cc1I (stereo not drawn) | > 100 µM | 90.1 µM | 0.802 µM | > 100 µM | > 100 µM | > 100 µM | > 100 µM | > 100 µM | > 100 µM | 0.648 µM | 0.658 µM | 0.344 µM | 0.28 µM | 0.407 µM | 0.365 µM | 0.712 µM | 0.339 µM | 0.457 µM | 0.526 µM | 0.228 µM
11 | COc1ccc(/C(Cl)=C(\C=O)c2ccc(OC)c(OC)c2)cc1OC | > 100 µM | > 67.9 µM | > 57.7 µM | > 100 µM | > 100 µM | > 39.8 µM | > 100 µM | > 100 µM | > 48.7 µM | > 100 µM | – | – | – | – | – | – | – | – | – | –
12 | O=C1C(Cl)=C(Nc2cccc(C(F)(F)F)c2)C(=O)N1Cc1ccccc1Cl | 37 µM | 32.9 µM | 24.8 µM | 20.9 µM | – | 26.1 µM | 20.6 µM | 3.75 µM | 37 µM | 35.8 µM | 15.7 µM | 4.9 µM | 4.33 µM | 2.71 µM | 1.23 µM | 7.7 µM | 3.42 µM | 1.41 µM | 18.3 µM | 12 µM
13 | COc1ccc2c(c1OC)-c1c(c3ccc([N+](=O)[O-])cc3c(=O)n1CCCN=[N+]=[N-])C2=O | > 100 µM | > 100 µM | > 100 µM | > 100 µM | 17.1 µM | > 100 µM | > 100 µM | > 100 µM | > 100 µM | > 100 µM | > 100 µM | 31.7 µM | 56.1 µM | 21 µM | 2.04 µM | 30.3 µM | > 100 µM | 5.99 µM | > 100 µM | > 100 µM
14 | O=C(N=Nc1c(O)[nH]c2c(Cl)cc(Cl)cc12)c1ccncc1 | > 100 µM | 75.7 µM | 37.5 µM | 67.8 µM | > 100 µM | – | > 100 µM | 42.3 µM | > 100 µM | > 100 µM | – | – | – | – | – | – | – | – | – | –
